Source: patent US7012081B2, “Anthranyl amides and their use as medicaments” (Schering AG, priority 2000, dated 2006)

How the values were obtained:
[1] = target: VEGFR II (KDR) (Homo sapiens, UniProt P35968); test: Inhibition of the KDR kinase activity (33P-ATP / poly-(Glu4Tyr) phosphocellulose filter assay); format: biochemical; conditions: substrate poly-(Glu4Tyr), 10 minutes at room temperature
Description: • Stock solution A: 3 mmol of ATP in water, pH 7.0 (−70° C.) • Stock solution B: g-33P-ATP 1 mCi/100 μl • Stock solution C: poly-(Glu4 Tyr) 10 mg/ml in water Solution for Dilutions • Substrate solvent: 10 mmol of DTT, 10 mmol of manganese chloride, 100 mmol of magnesium chloride • Enzyme solution: 120 mmol of tris/HCl, pH 7.5, 10 μM of sodium vanadium oxide Sample Application 1 Inhibition of the KDR- and FLT-1 Kinase Activity in the Presence of the Compounds According to the Invention
In a microtiter plate (without protein binding) that tapers to a point, 10 μl of substrate mix (10 μl of volume of ATP stock solution A+25 μCi of g-33P-ATP (about 2.5 μl of stock solution B)+30 μl of poly-(Glu4Tyr) stock solution C+1.21 ml of substrate solvent), 10 μl of inhibitor solution (substances corresponding to the dilutions, 3% DMSO in substrate solvent as a control) and 10 μl of enzyme solution (11.25 μg of enzyme stock solution (KDR or FLT-1 kinase) are added at 4° C. in 1.25 ml of enzyme solution (dilute). It is thoroughly mixed and incubated for 10 minutes at room temperature. Then, 10 μl of stop solution (250 mmol of EDTA, pH 7.0) is added, mixed, and 10 μl of the solution is transferred to a P 81 phosphocellulose filter. Then, it is washed several times in 0.1 M phosphoric acid. The filter paper is dried, coated with Meltilex and measured in a microbeta counter. […]

Chain of VEGFR II (KDR) (P35968 20-1356, species assumed): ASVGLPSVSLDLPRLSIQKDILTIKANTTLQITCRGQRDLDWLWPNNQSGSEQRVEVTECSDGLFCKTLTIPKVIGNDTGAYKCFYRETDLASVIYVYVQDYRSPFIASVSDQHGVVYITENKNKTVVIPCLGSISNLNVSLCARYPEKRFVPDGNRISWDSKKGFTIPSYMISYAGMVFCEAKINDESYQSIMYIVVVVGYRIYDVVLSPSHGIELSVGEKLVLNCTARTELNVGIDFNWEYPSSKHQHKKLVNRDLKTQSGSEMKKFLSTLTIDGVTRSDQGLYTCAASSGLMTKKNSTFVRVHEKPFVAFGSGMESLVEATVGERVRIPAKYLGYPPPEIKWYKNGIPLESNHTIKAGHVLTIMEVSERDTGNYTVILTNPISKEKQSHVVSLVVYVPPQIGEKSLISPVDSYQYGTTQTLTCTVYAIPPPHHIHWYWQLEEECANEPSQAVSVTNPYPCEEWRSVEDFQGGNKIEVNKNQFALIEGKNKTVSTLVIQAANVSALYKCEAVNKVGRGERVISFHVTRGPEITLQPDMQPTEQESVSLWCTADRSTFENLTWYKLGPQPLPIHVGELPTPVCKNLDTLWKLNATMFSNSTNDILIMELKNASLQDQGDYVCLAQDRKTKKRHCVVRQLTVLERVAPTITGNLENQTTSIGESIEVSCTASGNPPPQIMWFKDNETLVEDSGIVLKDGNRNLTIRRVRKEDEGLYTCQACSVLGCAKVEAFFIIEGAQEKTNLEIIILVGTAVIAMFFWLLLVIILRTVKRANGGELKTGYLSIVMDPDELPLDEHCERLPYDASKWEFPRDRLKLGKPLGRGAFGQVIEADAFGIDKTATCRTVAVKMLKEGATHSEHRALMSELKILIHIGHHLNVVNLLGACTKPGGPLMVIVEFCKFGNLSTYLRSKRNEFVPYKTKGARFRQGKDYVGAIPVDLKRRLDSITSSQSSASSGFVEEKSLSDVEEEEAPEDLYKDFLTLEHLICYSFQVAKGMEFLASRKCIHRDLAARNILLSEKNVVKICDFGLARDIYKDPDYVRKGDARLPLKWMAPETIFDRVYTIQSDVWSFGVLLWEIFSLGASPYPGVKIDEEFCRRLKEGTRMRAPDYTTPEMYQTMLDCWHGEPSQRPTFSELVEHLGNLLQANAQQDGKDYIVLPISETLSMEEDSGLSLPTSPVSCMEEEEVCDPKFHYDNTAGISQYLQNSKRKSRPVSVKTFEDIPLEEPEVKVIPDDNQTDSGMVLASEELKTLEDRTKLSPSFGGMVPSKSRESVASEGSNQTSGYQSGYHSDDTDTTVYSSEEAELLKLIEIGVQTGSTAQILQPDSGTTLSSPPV

Row | IC50 [1] [nM] | melting point [°C] | Structure (SMILES)
1 | 20 |  | O=C1CCC(CNc2ccccc2C(=O)Nc2cc3ccccc3cn2)CC1 [Example 2.0]
2 | 50 | 140.4 | O=C(Nc1cc2ccccc2cn1)c1ccccc1NCC1CCOCC1 [Example 1.1]
